Holding throughout (experiment): inhibition of tumour cell growth, NCI panel, 48 h
Experiment [1] deals with A549 NSCLC.
Experiment [2] concerns IGROV1 ovarian.
For experiment [3], the system named is SN12C renal.
Experiment [4] concerns MDA-MB-435.
The subject of experiment [5] is MALME-3M melanoma.
Experiment [6] concerns SF-268 CNS.
Experiment [7] concerns LOX IMVI melanoma.
Experiment [8] has as its system UACC-257 melanoma.
Experiment [9] deals with OVCAR-3 ovarian.
In experiment [10] the test system is SF-295 CNS.

Structures are written as SMILES.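 Tested at 5 concentrations; 48 h exposure; 96-well plates; endpoints linearly interpolated, else capped at highest concentration. Here, GI50 denotes the concentration required for 50% inhibition of growth. TGI marks complete inhibition of growth.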 A value given as a limit tells only on which side of the number the result lay.

Data on 17 compounds can be found in PubChem BioAssay (NCI).

For `O=C(Cn1c2ccccc2c2ccncc21)N/N=C\c1ccc2ccccc2c1`, the GI50 in experiment [1] is 20.9 µM; in experiment [2] it was 13 µM; in [3] it was 14.7 µM; in experiment [4], 17.1 µM; in [5] it was 11.4 µM; in [6] it was 18.7 µM. The GI50 is 28.6 µM in experiment [7], 42.1 µM in experiment [8], 12.2 µM in experiment [9] and 14.8 µM in experiment [10]. The TGI in [1] is 57.1 µM; in [2], 38.3 µM; in [3], 46.6 µM; in experiment [4], 63.3 µM; in [5], 45.6 µM; in experiment [6], 91.6 µM. Moreover, the TGI is more than 100 µM in experiment [7], more than 100 µM in experiment [8], 36.5 µM in experiment [9] and 34.6 µM in experiment [10].
In the case of `CN(C)C(=S)SCC(N)=O`, the TGI in experiment [1], in experiment [2], in experiment [3], in [4], in experiment [5] and in experiment [6] was more than 100 µM each time. Also, the TGI in experiment [7], in experiment [8], in [9] and in [10] was more than 100 µM in each case.
With `O=C(CN1C(=O)S/C(=C\C(Cl)=C\c2ccccc2)C1=O)NCCCn1ccnc1`, the GI50 in experiment [1] is 3.3 µM; in [2] it was 1.82 µM; in [3] it was 2.26 µM; in experiment [4], 1.99 µM; in experiment [5], 1.82 µM; in experiment [6], 2.52 µM. Further, the GI50 was 1.37 µM in experiment [7], 2.63 µM in [8], 1.76 µM in experiment [9] and 10 µM in experiment [10]. Moreover, the TGI worked out at 23.2 µM in experiment [1]; 4.23 µM in experiment [2]; 7.49 µM in [3]; 4.19 µM in experiment [4]; 4.9 µM in [5]; 7.65 µM in experiment [6]. For the same compound, the TGI was determined as 2.75 µM in experiment [7], 10.2 µM in experiment [8], 3.25 µM in experiment [9] and 24.4 µM in experiment [10].
As to `c1ccc(/C(=N\Nc2ccc3ccccc3n2)c2ccccn2)cc1`, the GI50 in [1] was 1.11 µM; in experiment [2], 0.433 µM; in experiment [3], 0.507 µM; in experiment [4], 0.66 µM; in experiment [5] it was 0.546 µM; in experiment [6] it was 0.743 µM. Besides, the GI50 in experiment [7] was 0.457 µM; in experiment [8], 0.33 µM; in [9] it was 0.291 µM; in experiment [10], 0.211 µM. Also, the TGI in experiment [1] was more than 36.2 µM; in experiment [2] it was 3.23 µM; in experiment [3], 25.6 µM; in [4], 16.7 µM; in experiment [5] it was 5.76 µM; in experiment [6], 9.87 µM. In addition, the TGI in experiment [7] worked out at 5.61 µM; in experiment [8], 3.48 µM; in experiment [9], 2.49 µM; in experiment [10], 2.13 µM.
In the case of `CCc1nc(N)nc(N)c1C#CC(C)c1cc(-c2ccnc(C)c2)c2oc(C)nc2c1` (centres undefined), the GI50 is less than 0.01 µM in experiment [1]; less than 0.01 µM in experiment [2]; less than 0.0145 µM in experiment [3]; less than 0.01 µM in [4]; 2.11 µM in experiment [5]; less than 0.01 µM in experiment [6]. For the same compound, the GI50 is less than 0.01 µM in experiment [7], 0.0893 µM in [9] and less than 0.01 µM in [10]. For the same compound, the TGI is 11.7 µM in [1]; 6.23 µM in experiment [2]; 11.4 µM in [3]; 12.3 µM in experiment [4]; 14.4 µM in [5]; 6.02 µM in experiment [6]. Also, the TGI was determined as 2.3 µM in [7], 13.2 µM in experiment [8], 15 µM in experiment [9] and 6.39 µM in experiment [10].
In the case of `CCCC(CCC)C(=O)OCC1(CO)C/C(=C\c2ccc(C(F)(F)F)cc2)C(=O)O1` (centres undefined), the GI50 in experiment [1] is 5.69 µM; in [2], 14.8 µM; in [3], 11.9 µM; in experiment [4], 0.304 µM; in experiment [5], 16.4 µM; in experiment [6], 16.2 µM. For the same compound, the GI50 in experiment [7] is 10 µM; in experiment [8], 18.1 µM; in experiment [9] it was 19.8 µM; in [10], 2.44 µM. Also, the TGI in experiment [1] is 26.3 µM; in experiment [2], 33 µM; in [3] it was 25.7 µM; in experiment [4], 19.3 µM; in [5], 31.7 µM; in experiment [6], 33.3 µM. The TGI in experiment [7] turned out to be 22.8 µM; in experiment [8], 33.4 µM; in [9], 36.1 µM; in experiment [10] it was 17.7 µM.
For the compound `COc1ccc(CN=C(N)N=C(N)N)cc1OC`, the GI50 in experiment [1] was 404 µM; in experiment [2], more than 1000 µM; in [3] it was 358 µM; in experiment [4] it was more than 1000 µM; in experiment [5], 365 µM; in experiment [6] it was 472 µM. Further, the GI50 in [7] was more than 1000 µM; in experiment [8], 448 µM; in experiment [9] it was 612 µM; in experiment [10] it was 194 µM. The TGI in [1], in experiment [2], in experiment [3], in [4], in experiment [5] and in [6] was more than 1000 µM in each case. Also, the TGI in experiment [7], in [8], in experiment [9] and in [10] was more than 1000 µM in each case.
Take `Clc1ccc(/C=C/c2nc(Cl)c(-c3ccc(Cl)cc3)c(Cl)n2)cc1`: the TGI in [1], in experiment [2], in [3], in [4], in [5] and in experiment [6] was more than 100 µM each time. Further, the TGI in experiment [7], in experiment [8], in [9] and in [10] was more than 100 µM in each case.
As for `O=C1NC(SCc2ccc(F)cc2)=N/C1=C/c1cccc(OCc2ccc(Cl)cc2)c1`, the GI50 in experiment [1] was 6.61 µM; in experiment [2], 4.91 µM; in experiment [3], 4.52 µM; in experiment [4], more than 100 µM; in [5], 26.5 µM; in experiment [6], more than 100 µM. Moreover, the GI50 is 6 µM in experiment [7], more than 100 µM in experiment [8], 5.08 µM in experiment [9] and 4.97 µM in experiment [10]. In addition, the TGI in experiment [1], in experiment [2], in [3], in [4], in experiment [5] and in [6] was more than 100 µM each time. Further, the TGI in experiment [7] was more than 100 µM; in [8] it was more than 100 µM; in experiment [9] it was 31.5 µM; in experiment [10] it was more than 100 µM.
For `Cc1cn(Cc2ccccc2CCl)c(=O)n(Cc2ccccc2CCl)c1=O`, the GI50 was 3.9 µM in [1]; 0.53 µM in experiment [2]; 2.65 µM in [3]; 1.97 µM in experiment [4]; 2.03 µM in experiment [5]; 2.32 µM in experiment [6]. Moreover, the GI50 in experiment [7] was 1.16 µM; in [8] it was 2.25 µM; in experiment [9], 1.85 µM; in [10] it was 3.52 µM. Further, the TGI was determined as 14.2 µM in [1]; 2.25 µM in [2]; 6.97 µM in experiment [3]; 4.07 µM in experiment [4]; 4.02 µM in experiment [5]; 5.99 µM in [6]. For the same compound, the TGI in experiment [7] was 2.59 µM; in experiment [8] it was 4.86 µM; in experiment [9] it was 3.65 µM; in [10], 16.7 µM.
Turning to `COc1cc(NC(=O)c2cc(O)c(C/C=C(\C)CCC=C(C)C)c(O)c2)cc2c1O[C@]1(C)CC[C@@H](O)C(C)(C)[C@H]1C2`, the GI50 in experiment [1] was 1.98 µM; in experiment [2], 2.45 µM; in [3], 2.9 µM; in experiment [4], 2.01 µM; in [5], 1.62 µM; in [6], 1.56 µM. Moreover, the GI50 in experiment [7] is 1.35 µM; in experiment [8], 2.82 µM; in [9], 1.88 µM; in [10], 0.306 µM. In addition, the TGI in [1] turned out to be 6.66 µM; in [2], 11.1 µM; in experiment [3], 12.1 µM; in [4], 8.19 µM; in experiment [5], 5.39 µM; in [6], 5.74 µM. In addition, the TGI in experiment [7] came out at 2.89 µM; in [8], 14.3 µM; in experiment [9] it was 5.49 µM; in [10], 1.52 µM.
As to `CC1=NN(c2ccccc2)C(=O)C1N=Nc1ccc(S(N)(=O)=O)cc1` (centres undefined), the TGI in [1], in [2], in [3], in [4], in experiment [5] and in [6] was more than 100 µM each time. Besides, the TGI in experiment [7], in experiment [8], in experiment [9] and in experiment [10] was more than 100 µM each time.
For `C=C(C)C(=O)O[C@H]1CC2=CC(CC(C)=C[C@H]3OC(=O)C(=C)C13)OC2=O` (some centres undefined), the TGI in [1] is more than 100 µM; in experiment [2], more than 100 µM; in experiment [3], 51.4 µM; in experiment [4], more than 100 µM; in experiment [5] it was 40.7 µM; in experiment [6] it was 68.5 µM. The TGI in experiment [7] was 53.7 µM; in experiment [8] it was 96.3 µM; in [9], 70.5 µM; in experiment [10], more than 100 µM.
In the case of `Cc1ccc(-c2c3c(N)c4c(nc3nc3c2c(C)nn3-c2ccccc2)CCC4)cc1`, the GI50 in [1] is 2.5 µM; in experiment [2], 4.02 µM; in experiment [3] it was 1.83 µM; in experiment [4], 17.1 µM; in [5], 18.4 µM; in [6], 3.26 µM. Moreover, the GI50 in [7] was 1.98 µM; in [8] it was 14.1 µM; in experiment [9], 1.96 µM; in experiment [10], 7.45 µM. Besides, the TGI in [1] was determined as 7.49 µM; in experiment [2], 16.2 µM; in experiment [3] it was 3.74 µM; in experiment [4], 34.2 µM; in experiment [5], 39.1 µM; in [6], 11 µM. The TGI worked out at 3.99 µM in [7], 28.8 µM in [8], 3.86 µM in experiment [9] and 21.9 µM in [10].
For the compound `CCCCN(CCCC)CCC(O)c1cc2ccc(C(F)(F)F)cc2c2cc(C(F)(F)F)ccc12` (centres undefined), the GI50 is 3.12 µM in [1]; 3.47 µM in [2]; 3.84 µM in experiment [3]; 2.13 µM in experiment [4]; 2.34 µM in experiment [5]; 4.98 µM in experiment [6]. The GI50 was 1.66 µM in experiment [7], 2.15 µM in experiment [8], 2.89 µM in experiment [9] and 5.18 µM in experiment [10]. Further, the TGI in [1] is 12.1 µM; in [2], 14.5 µM; in experiment [3] it was 14.6 µM; in experiment [4], 4.59 µM; in experiment [5], 5.51 µM; in experiment [6] it was 18.3 µM. The TGI in [7] was found to be 3.63 µM; in experiment [8], 5.96 µM; in experiment [9], 7.55 µM; in experiment [10], 18 µM.
With `CN(C)CC1=Nc2cccc3cccc(c23)N1`, the TGI in experiment [1] is more than 100 µM; in [2], 36.6 µM; in experiment [3], 31.8 µM; in experiment [4] it was 38.1 µM; in experiment [5], 36.5 µM; in experiment [6] it was 33.4 µM. Besides, the TGI is 37.3 µM in experiment [7], 31 µM in [8], 30.5 µM in [9] and more than 100 µM in [10].
As for `O=C1OC(OC/C(Br)=C(/Br)COC2OC(=O)C(Cl)=C2Cl)C(Cl)=C1Cl` (centres undefined), the TGI was 48.9 µM in experiment [1]; 28.2 µM in [2]; 22.6 µM in experiment [3]; 24.2 µM in [4]; 21.2 µM in experiment [5]; 35.5 µM in experiment [6]. The TGI in [7] was 8.36 µM; in experiment [8], 25.5 µM; in experiment [9], 14.6 µM; in experiment [10], 34.2 µM.
